The values that follow come from US8957056B2, “Migrastatin analogs in the treatment of cancer” (Sloan-Kettering Instiute for Cancer Research, priority 2004, dated 2015).

Structures are written as SMILES. Like-named read-outs stand apart in the source and are kept apart here.

Data set [1] deals with mouse breast tumor cells (4T1 cells). As to the kind of experiment: Boyden chamber cell migration assay, 4T1. The format is cell-based. Particulars: for inhibitory activity on tumor cell migration: 4T1 chamber assay; for IC50: 4T1 tumor cells, 6-8 hours, read-out: IC50 value, chamber cell migration assay.
The nature of data set [2]: Mouse blood plasma stability. On the procedure:
The biological evaluation of the compounds (in terms of their ability to inhibit cell migration) was accomplished in a Boyden chamber cell migration assay. In this assay, mouse breast tumor cells (4T1 cells) or endothelial cells (HUVECs) are seeded on the upper chamber of a transwell insert. Growth factor-containing serum is added to the lower chamber.
In anticipation of subsequent in vivo evaluation of these compounds and others, preliminary metabolic stability studies were carried out. […] As a test of the ‘deactivation hypothesis’, the hydrolysis product of macrolactone 48 was prepared (Scheme 27) and tested for its activity against tumor cell migration.

For data set [3] the following is noted: rcm bond, toluene, 0.25 h.
In another data set the test system is HUVEC. As to the kind of experiment: Tube formation assay. The format is cell-based, human. Particulars: HUVEC on matrigel, 16-18 h, tested concentrations 200, 100, 50, 25, 10 μM. As to the method:
A protocol was designed based on the instructions from the provider (BD Bioscience, San Jose, Calif.). Briefly, wells of a 48 well culture dish were covert with 150 μL matrigel and the matrigel was gelatinized for 30 min at 37° C. A 80-90% confluent HUVEC (BD Bioscience, San Jose, Calif.) culture was trypsin treated, the detached cells were collected by centrifugation and resuspended in EGM-2 media (BD Bioscience, San Jose, Calif.). Cell concentration was adjusted to 100.000 cells/mL. 400 μL of the cell suspension were filled in the matrigel coated wells, and a solution of the inhibitor was added to the intended final concentration. The plates were incubated at 37° C. with 5% CO2 for 16-18 h. Media was removed, and the matrigel surface was washed twice with 500 μL PBS before cells were labeled with 250 μL 8 μM Calcein AM (Pierce, Rockford, Ill.) in PBS for 30 min at 37° C. After two additional washing steps (500 μL PBS) cells were visualized under an inverted microscope. Fluorescence was excited at 488 nm and recorded at 538 nm. The minimum effect concentration was defined as the minimal inhibitor concentration that caused a definite disturbance of the complexity of the formed tube network.

Data set [4] deals with adherent cells (e.g. KYSE-520 cells). As to the kind of experiment: Wound healing (scratch) assay, preliminary (Table 2). Conditions: 28 to 30 h, tested concentrations 200, 100, 50, 25, 10 μM. The format is cell-based. As to the method:
The wound healing assay was performed based on the method described by Nakae et al. (Nakae et al., J. Antibiotics (2000), 53, 1130-1136). Briefly, adherent cells were grown in a suitable media to confluence (e.g. KYSE-520 cells in RPMI-1640 with 10% FBS). Cells were starved for 24 h in serum free media A scratch (ca. 0.5 mm) was applied and the cell layer was washed twice with PBS after removal of the media. Fresh, serum free media with the test compound at the desired concentration was added and the cells were incubated for 28 to 30 h at 37° C., 5% CO2. The scratch size was compared to that observed for cells exposed to 100 μM Migrastatin. Test compounds associated with a scratch size equal to or larger than that observed for cells exposed to 100 μM Migrastatin were deemed to have cell migration inhibitory activity at least equal to Migrastatin.

The subject of data set [5] is mouse breast tumor cells (4T1 cells). Particulars: chamber assay with mouse breast tumor cells; reported in WO 2004/087672; cited from earlier work.

With `COC1C=CCCCCC(=O)OC(C(C)C)C(C)=CC(C)C1O` [Compound 65, (S)-Isopropyl Macrolactone], the “inhibitory activity on tumor cell migration” value (“inhibitory activity” for short) in data set [1] is given as “only very weak effects on tumor cell migration”. In addition, in data set [2] (mouse, plasma), the “metabolic stability in mouse blood plasma” value (shortened to “metabolic stability”) is given as “no sign of degradation”.
In the case of `CO[C@H]1C=CCC/C=C/C(=O)O[C@H]([C@H](C)C(=O)CCCC2CC(=O)NC(=O)C2)/C(C)=C\[C@@H](C)[C@@H]1O[Si](C)(C)C(C)(C)C`, the ring closure, yield of all isomers in data set [3] (from C=CCC/C=C/C(=O)O[C@@H](/C(C)=C\[C@@H](C)[C@H](O[Si](C)(C)C(C)(C)C)[C@H](C=C)OC)[C@H](C)C(=O)CCCC1CC(=O)NC(=O)C1, Grubbs II, 0.46 mM, 111.0 °C) is 69%.
Take `CO[C@H]1C=CCCCCC(=O)O[C@H]([C@H](C)C(=O)CCCC2CC(=O)NC(=O)C2)/C(C)=C\[C@@H](C)[C@@H]1O[Si](C)(C)C(C)(C)C`: the ring closure, yield of all isomers in data set [3] (from C=CCCCCC(=O)O[C@@H](/C(C)=C\[C@@H](C)[C@H](O[Si](C)(C)C(C)(C)C)[C@H](C=C)OC)[C@H](C)C(=O)CCCC1CC(=O)NC(=O)C1, Grubbs II, 0.48 mM, 111.0 °C) is 79%.
As to `CO[C@H]1/C=C/CCCCC(=O)OC/C(C)=C\[C@@H](C)C1=O` [Compound 50, Oxidized Macrolactone], the “inhibitory activity” value in data set [1] was “reduced by roughly an order of magnitude”.
On to `COC1C=CCCCCC(=O)OC(C(C)C(=O)CCCC2CC(=O)NC(=O)C2)C(C)=CC(C)C1O` (stereo not shown) [Compound 41, 2,3-Dihydromigrastatin], for which the Minimum effect concentration in the data set on HUVEC is 50 µM; in data set [4], 25 µM. In addition, in data set [1], the IC50 came to 10 µM. The “metabolic stability” value in data set [2] (mouse, plasma) is recorded as “completely inert toward lactone opening”.
Compound `CO[C@H]1C=CCCCCC(=O)CC/C(C)=C\[C@@H](C)[C@@H]1O[Si](C)(C)C(C)(C)C` displayed a ring closure, yield of all isomers in data set [3] (from C=CCCCCC(=O)CC/C(C)=C\[C@@H](C)[C@H](O[Si](C)(C)C(C)(C)C)[C@H](C=C)OC, Grubbs-II catalyst, 0.508 mM, 110.0 °C) of 81%.
With `COC1C=CCCCCC(=O)OC(C(C)C(=O)CCCC2CC(=O)N(C)C(=O)C2)C(C)=CC(C)C1O` (stereo not shown) [Compound 42, N-Methyl-2,3-Dihydromigrastatin], the IC50 in data set [1] is 7 µM. Besides, the “metabolic stability” value in data set [2] (mouse, plasma) is “completely inert toward lactone opening”.
Regarding `CO[C@H]1/C=C/CCCCC(=O)OC/C(C)=C\[C@@H](C)[C@@H]1OC(C)=O` [Compound 49, Acetylated Macrolactone], the “inhibitory activity” value in data set [1] is reported as “reduced by roughly an order of magnitude”.
Take `COC1C=CCCC=CC(=O)OC(C(C)C(=O)CCCC2CC(=O)N(C)C(=O)C2)C(C)=CC(C)C1O` (stereo not shown) [N-Methyl-migrastatin]: the Minimum effect concentration is 200 µM in the data set on HUVEC and 100 µM in data set [4].
`CO[C@H]1/C=C/CCCCC(O)CC/C(C)=C\[C@@H](C)[C@@H]1O` (stereo partly shown) [Compound 69, Macrocyclic Secondary Alcohol]: the “ability to inhibit tumor cell migration” value in data set [5] is “rather weak migration inhibitors”.
Regarding `CO[C@@H](/C=C/CCCCC(=O)O)[C@@H](O)[C@H](C)/C=C(/C)CO` [Compound 51, Hydrolyzed Core], in data set [1] (Mus musculus), the IC50 is 0.378 µM.
`CO[C@H]1/C=C/CC/C=C/C(=O)OC/C(C)=C\[C@@H](C)[C@@H]1O` [Compound 45, Migrastatin Core]: in the data set on HUVEC, the Minimum effect concentration came out at 10 µM. In data set [2] (test period one hour), the “metabolic stability” value was “hydrolyzed rapidly”.
In turn, `CO[C@H]1C=CCCCCC(=O)OC/C(C)=C\[C@@H](C)[C@@H]1O[Si](C)(C)C(C)(C)C` registered a ring closure, yield of all isomers in data set [3] (from C=CCCCCC(=O)OC/C(C)=C\[C@@H](C)[C@H](O[Si](C)(C)C(C)(C)C)[C@H](C=C)OC, Grubbs II, 0.498 mM, 111.0 °C) of 76%.
For `CO[C@H]1C=CCCCCC(=O)O[C@@H](C(C)C)/C(C)=C\[C@@H](C)[C@@H]1O`, the ring closure, yield of all isomers in data set [3] (from C=CCCCCC(=O)O[C@H](/C(C)=C\[C@@H](C)[C@H](O[Si](C)(C)C(C)(C)C)[C@H](C=C)OC)C(C)C, Grubbs-II catalyst, 0.53 mM, 110.0 °C, 2 steps) stood at 65%.
For the compound `CO[C@H]1/C=C/CCCCC(O)(C(F)(F)F)CC/C(C)=C\[C@@H](C)[C@@H]1O` (stereo partly shown) [Compound 71, Macrocyclic CF3-Alcohol], the “ability to inhibit tumor cell migration” value in data set [5] is listed as “displays the same activity profile as macroketone 60”.
In the case of `CO[C@H]1/C=C/CCCCC(=NO)CC/C(C)=C\[C@@H](C)[C@@H]1O` [Compound 72, Macrooxime], the “ability to inhibit tumor cell migration” value in data set [5] is on record as “rather weak migration inhibitors”.
With `CO[C@H]1C=CCCCCC(=O)NC/C(C)=C\[C@@H](C)[C@@H]1O[Si](C)(C)C(C)(C)C`, the ring closure, yield of all isomers in data set [3] (from C=CCCCCC(=O)NC/C(C)=C\[C@@H](C)[C@H](O[Si](C)(C)C(C)(C)C)[C@H](C=C)OC, Grubbs II, 0.709 mM, 111.0 °C) is 60%.
Consider `CO[C@H]1/C=C/CCCCC(C)(O)CC/C(C)=C\[C@@H](C)[C@@H]1O` (stereo partly shown) [Compound 70, Macrocyclic Tertiary Alcohol], for which the “ability to inhibit tumor cell migration” value in data set [5] is “rather weak migration inhibitors”.
As to `COC1C=CCCCCC(=O)OC(C(C)C)C(C)=CC(C)C1O` [Compound 68, (R)-Isopropyl Macrolactone], the “inhibitory activity” value in data set [1] is “only very weak effects on tumor cell migration”. Moreover, in data set [2] (mouse, plasma), the “metabolic stability” value is on record as “no sign of degradation”.
Take `CO[C@H]1C=CCC/C=C/C(=O)OC/C(C)=C\[C@@H](C)[C@@H]1O[Si](C)(C)C(C)(C)C`: in data set [3] (from C=CCC/C=C/C(=O)OC/C(C)=C\[C@@H](C)[C@H](O[Si](C)(C)C(C)(C)C)[C@H](C=C)OC, Grubbs II, 0.664 mM, 111.0 °C), the ring closure, yield of all isomers was determined as 55%.
